Measured values reported in patent US20160129089A1, “COMBINATION THERAPY” (ANTISENSE THERAPEUTICS LTD, priority 2013, published 2016).
e = 2'-O-(2-methoxyethyl) (MOE); d = 2'-deoxy (DNA)

Tested on: human growth hormone receptor mRNA
Assay: Inhibition of human growth hormone receptor mRNA levels by antisense oligonucleotides, quantitative real-time PCR, MCF7 cells
Type: cell-based
Set-up: concentration or dose not given beside the values
Settings: averages from three experiments
Method: “Target site” indicates the first (5′-most) nucleotide number on the particular target sequence to which the oligonucleotide binds. “% Inhib” indicates the inhibitory effect on hGHR mRNA levels by quantitative real-time PCR. Data are averages from three experiments in which MCF7 cells were treated with the antisense oligonucleotides.
All oligonucelotides in Table 1 are chimeric oligonucleotides (“gapmers”), 20 nucleotides in length, composed of a central “gap” region consisting of ten 2′-deoxynucleotides, which is flanked on both sides (5′ and 3′ directions) by five-nucleotide “wings”. The wings are composed of 2′-methoxyethyl (2′-MOE) nucleotides. The internucleoside (backbone) linkages are phosphorothioate (P═S) throughout the oligonucleotide. All uracils are 5-methyluracils (^MeU). Typically, the oligonucleotide is synthesized using 2-methoxyethyl modified thymidines not 5-methyluracils. All pyrimidines are C5 methylated (i.e., U, T, C are C5 methylated).

In the case of “272330 (antisense GATGCACTTTTTGGCATCTG; sugars from the 5' end e5 d10 e5, all phosphorothioate, methylation of C not given here) [compound 272330]”, the “% INHIB (inhibitory effect on hGHR mRNA levels)” value (“% INHIB” below) is reported as 47%.

In the case of “227489 (antisense TGTTCAGTTGGTCTGTGCTC; sugars from the 5' end e5 d10 e5, all phosphorothioate, methylation of C not given here) [compound 227489]”, the “% INHIB” value is reported as 75%.

“272361 (antisense ATTTTCCTTCCTAGAAAATA; sugars from the 5' end e5 d10 e5, all phosphorothioate, methylation of C not given here) [compound 272361]” was tested, and the “% INHIB” value was 10%.

“227475 (antisense CCTGCTGGTGTAATGTCGCT; sugars from the 5' end e5 d10 e5, all phosphorothioate, methylation of C not given here) [compound 227475]” was tested, and the “% INHIB” value was 68%.

In the case of “272323 (antisense TGTGTCTGATTCCTCAGTCT; sugars from the 5' end e5 d10 e5, all phosphorothioate, methylation of C not given here) [compound 272323]”, the “% INHIB” value is reported as 67%.

With “272349 (antisense AGTCTTCCAAACACACAGCT; sugars from the 5' end e5 d10 e5, all phosphorothioate, methylation of C not given here) [compound 272349]” the “% INHIB” value was 68%.

“272312 (antisense GGGTGGATCTGGTTGCACTA; sugars from the 5' end e5 d10 e5, all phosphorothioate, methylation of C not given here) [compound 272312]” was tested, and the “% INHIB” value was 57%.

With “227468 (antisense TCATCAATATCTAGCTCAAT; sugars from the 5' end e5 d10 e5, all phosphorothioate, methylation of C not given here) [compound 227468]” the “% INHIB” value was 62%.

In the case of “272345 (antisense CATCTATTACAAATAACATG; sugars from the 5' end e5 d10 e5, all phosphorothioate, methylation of C not given here) [compound 272345]”, the “% INHIB” value is reported as 24%.

“272317 (antisense AGCCCAAATATTCCAAAGAT; sugars from the 5' end e5 d10 e5, all phosphorothioate, methylation of C not given here) [compound 272317]” was tested, and the “% INHIB” value was 65%.

With “272333 (antisense GTGCTCACATAGCCACATGA; sugars from the 5' end e5 d10 e5, all phosphorothioate, methylation of C not given here) [compound 272333]” the “% INHIB” value was 72%.

“272307 (antisense GTGAATTTAGGCTCCTTAGA; sugars from the 5' end e5 d10 e5, all phosphorothioate, methylation of C not given here) [compound 272307]” was tested, and the “% INHIB” value was 55%.

For “272355 (antisense TTGAGTGTTCCTAAAATGAA; sugars from the 5' end e5 d10 e5, all phosphorothioate, methylation of C not given here) [compound 272355]”, the “% INHIB” value was 24%.

“227484 (antisense TGGTAAGGCTTTCTGTGGTG; sugars from the 5' end e5 d10 e5, all phosphorothioate, methylation of C not given here) [compound 227484]” was tested, and the “% INHIB” value was 63%.

In the case of “227464 (antisense CCTTTAATCTTTGGAACTGG; sugars from the 5' end e5 d10 e5, all phosphorothioate, methylation of C not given here) [compound 227464]”, the “% INHIB” value is reported as 58%.

For “272342 (antisense TAGTGAGAAAGAAAGTTTCT; sugars from the 5' end e5 d10 e5, all phosphorothioate, methylation of C not given here) [compound 272342]”, the “% INHIB” value was 45%.

“272348 (antisense CACAGCTTTGAATTGAATTA; sugars from the 5' end e5 d10 e5, all phosphorothioate, methylation of C not given here) [compound 272348]” was tested, and the “% INHIB” value was 57%.

“272306 (antisense TTAGAAGAATTTGTCTTTAG; sugars from the 5' end e5 d10 e5, all phosphorothioate, methylation of C not given here) [compound 272306]” was tested, and the “% INHIB” value was 13%.

For “272311 (antisense TTGCACTATTTCATCAACAG; sugars from the 5' end e5 d10 e5, all phosphorothioate, methylation of C not given here) [compound 272311]”, the “% INHIB” value was 47%.

With “227453 (antisense CATAATCAGGGCATTCTTTC; sugars from the 5' end e5 d10 e5, all phosphorothioate, methylation of C not given here) [compound 227453]” the “% INHIB” value was 52%.

In the case of “272314 (antisense TAGGGTCCATCATTTTCCAT; sugars from the 5' end e5 d10 e5, all phosphorothioate, methylation of C not given here) [compound 272314]”, the “% INHIB” value is reported as 56%.

With “272337 (antisense AAACATAGCCATTCAATGCT; sugars from the 5' end e5 d10 e5, all phosphorothioate, methylation of C not given here) [compound 272337]” the “% INHIB” value was 39%.

“272336 (antisense CAATCACTGCTACTAAACAG; sugars from the 5' end e5 d10 e5, all phosphorothioate, methylation of C not given here) [compound 272336]” was tested, and the “% INHIB” value was 69%.

With “272324 (antisense TATGTCATTGGCATTGAAAT; sugars from the 5' end e5 d10 e5, all phosphorothioate, methylation of C not given here) [compound 272324]” the “% INHIB” value was 53%.

With “272329 (antisense ACTTTTTGGCATCTGCCTCA; sugars from the 5' end e5 d10 e5, all phosphorothioate, methylation of C not given here) [compound 272329]” the “% INHIB” value was 63%.

“272322 (antisense CTGGCTCATCAATATCTAGC; sugars from the 5' end e5 d10 e5, all phosphorothioate, methylation of C not given here) [compound 272322]” was tested, and the “% INHIB” value was 84%.

For “272360 (antisense TATTAGTTACCTTGAGGAGA; sugars from the 5' end e5 d10 e5, all phosphorothioate, methylation of C not given here) [compound 272360]”, the “% INHIB” value was 0%.

For “272350 (antisense AGGCTGTTGTGAAATAGTAA; sugars from the 5' end e5 d10 e5, all phosphorothioate, methylation of C not given here) [compound 272350]”, the “% INHIB” value was 67%.

With “272326 (antisense ACTCAGCTCCTTCAGTAGGA; sugars from the 5' end e5 d10 e5, all phosphorothioate, methylation of C not given here) [compound 272326]” the “% INHIB” value was 77%.

For “272344 (antisense ACACTCAATTCTAGCTTTTC; sugars from the 5' end e5 d10 e5, all phosphorothioate, methylation of C not given here) [compound 272344]”, the “% INHIB” value was 60%.

In the case of “272335 (antisense AAATACGTAGCTCTTGGGAA; sugars from the 5' end e5 d10 e5, all phosphorothioate, methylation of C not given here) [compound 272335]”, the “% INHIB” value is reported as 47%.

For “272332 (antisense CTCTTTGTCAGGCAAGGGCA; sugars from the 5' end e5 d10 e5, all phosphorothioate, methylation of C not given here) [compound 272332]”, the “% INHIB” value was 75%.

In the case of “272338 (antisense GTGCTATGGTTTGCATTCAA; sugars from the 5' end e5 d10 e5, all phosphorothioate, methylation of C not given here) [compound 272338]”, the “% INHIB” value is reported as 78%.

For “227481 (antisense TGGTGATGTAAATGTCCTCT; sugars from the 5' end e5 d10 e5, all phosphorothioate, methylation of C not given here) [compound 227481]”, the “% INHIB” value was 45%.

For “272313 (antisense ATTGCGTGGTGCTTCCCATC; sugars from the 5' end e5 d10 e5, all phosphorothioate, methylation of C not given here) [compound 272313]”, the “% INHIB” value was 77%.

For “272303 (antisense CCAGAGATCCATACCTGTAG; sugars from the 5' end e5 d10 e5, all phosphorothioate, methylation of C not given here) [compound 272303]”, the “% INHIB” value was 55%.
